Entries after “also recorded” stand apart in the source; their conditions may differ.
Key:
[1] = DPPH radical scavenging assay; conditions: for DPPH radical scavenging activity (in words): across tested concentrations 1 to 1000 μM
Procedure: The antioxidant properties of the compounds under study were examined using the 2,2-Diphenyl-1-picrylhydrazyl (DPPH) assay, following a well-established protocol. A DPPH solution was prepared at a concentration of 0.1 mM in methanol. […] To ensure proper reaction, the mixtures were kept in the dark and incubated at room temperature for 30 min. After incubation, the absorbance of each sample was measured at 517 nm using a UV-VIS spectrophotometer. Gallic acid was used as the reference standard, and methanol served as the blank control.
The ability of the compounds to scavenge free radicals was determined by observing the reduction of DPPH at 517 nm, with lower absorbance values indicating higher antioxidant activity. The half-maximal inhibitory concentration (IC50), defined as the concentration of the compound needed to neutralize 50% of the DPPH radicals, was calculated from the dose–response curve. All experiments were performed in triplicate, and the results are reported as the mean of three independent trials. This method is widely recognized for its reliability and reproducibility in evaluating the antioxidant potential of chemical compounds.

HIEC-6 cells = assay: Cell viability CCK-8 assay in HIEC-6; assay type: cell-based, Human; conditions: 24 h incubation
Procedure: Human intestinal epithelial cells (HIEC-6), originally obtained from the American Type Culture Collection (ATCC), were cultured in Opti-MEM™ I Reduced Serum Medium (Cat. No. 31985) supplemented with 20 mM HEPES, 10 mM L-glutamine, 10 ng/mL epidermal growth factor, and 4% fetal bovine serum (FBS) (New York, NY, USA). Cells were maintained in a humidified 5% CO2 incubator at 37 °C. Cell viability was assessed using the CCK-8 assay, a colorimetric method based on the reduction of water-soluble tetrazolium salts (WST-8) to a water-soluble formazan dye, with the resulting color intensity proportional to the number of viable cells. Briefly, cells were harvested at approximately 80% confluence, detached using trypsin-EDTA, and centrifuged at 1000 rpm for 5 min. The cell pellet was resuspended in fresh medium, and the density was adjusted to 1 × 10^6 cells/mL. A volume of 100 µL (1 × 10^5 cells/well) was seeded into a 96-well plate, with one well containing the medium only as background control. […] Subsequently, 10 µL of CCK-8 reagent was added to each well, and the plate was incubated for 4 h. Absorbance was measured at 450 nm using a microplate reader, results are expressed as the mean ± standard deviation (SD).

COX-2 = molecular target: T1, COX-2 (Homo sapiens, UniProt P35354); assay: Cyclooxygenase (COX-2) activity assay in HIEC-6 cell lysate; assay type: biochemical
T1 construct: endogenous in cells; host or cells: HIEC-6 cell lysate
T1 sequence (P35354 18-604): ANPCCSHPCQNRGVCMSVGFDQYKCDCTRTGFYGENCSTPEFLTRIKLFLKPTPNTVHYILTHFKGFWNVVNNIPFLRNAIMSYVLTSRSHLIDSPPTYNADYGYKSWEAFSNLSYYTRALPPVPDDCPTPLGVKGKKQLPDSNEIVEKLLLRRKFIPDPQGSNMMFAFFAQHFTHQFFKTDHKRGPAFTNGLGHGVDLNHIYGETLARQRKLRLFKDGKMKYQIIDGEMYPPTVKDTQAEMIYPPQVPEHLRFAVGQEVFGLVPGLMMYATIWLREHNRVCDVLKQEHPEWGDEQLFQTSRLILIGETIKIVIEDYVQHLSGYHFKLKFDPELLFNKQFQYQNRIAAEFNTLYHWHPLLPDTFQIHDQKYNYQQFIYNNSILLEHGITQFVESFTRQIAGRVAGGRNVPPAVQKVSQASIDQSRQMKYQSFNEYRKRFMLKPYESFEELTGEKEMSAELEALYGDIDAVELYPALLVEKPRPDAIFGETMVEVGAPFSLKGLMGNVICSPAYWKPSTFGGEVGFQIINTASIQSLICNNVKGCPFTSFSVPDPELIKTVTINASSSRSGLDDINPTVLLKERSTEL
Procedure: Cyclooxygenase (COX-2) activity assay was performed in HIEC-6 cells according to the manufacturer’s instructions (ab204699). Resorufin standards (0–20 pmol/well) were used to generate a calibration curve for quantifying sample concentrations. HIEC-6 cells were centrifuged at 500× g for 3 min and washed with PBS. The cell pellet was lysed in an ice-cold lysis buffer containing 10% Triton X-100 and a protease inhibitor cocktail in PBS for 5 min. The lysate was then centrifuged at 12,000× g for 3 min at 4 °C, and the supernatant was collected and kept on ice. Protein concentration in the supernatant was determined using a Bradford assay, with a bovine serum albumin standard curve (0–2000 µg/mL). […] This mixture was added to a 96-well plate, and the reaction was initiated by adding arachidonic acid (COX-2 substrate) dissolved in NaOH solution. The enzymatic reaction produced fluorescent resorufin dye, which was measured at excitation/emission wavelengths of λEx/Em = 535/587 nm.

Structure (SMILES) | EC50 [1] | DPPH radical scavenging activity ([1]; at 1000 µM) | ROS scavenging activity ([1]; at 1000 µM (abstract)) | IC50 (HIEC-6 cells) | IC50 (HIEC-6 cells; Homo sapiens, HIEC-6, 24 h) | COX-2 inhibition compared to ibuprofen (COX-2; 1 µM) | COX-2 inhibition compared to ibuprofen (COX-2; 50 µM) | DPPH radical scavenging activity (in words) [1] | DPPH radical scavenging activity (in words) ([1]; listed as TMBS)
NS(=O)(=O)c1cc(O)c(O)c(O)c1 [3,4,5-THBS, 3,4,5-trihydroxybenzenesulfonamide] | ~27 µM | exceeding 90% | 93% | 35.5 ± 1.52 µM | 35 µM | inhibition levels similar to ibuprofen | inhibition levels similar to ibuprofen |  | 
COc1cc(S(N)(=O)=O)cc(OC)c1OC [3,4,5-TMBS, 3,4,5-trimethoxybenzenesulfonamide] |  |  |  | 33.4 ± 0.7 µM | 33 µM | no significant difference in COX-2 inhibition relative to ibuprofen | high COX-2 inhibition; also recorded: highly significant increase in inhibition | negligible effects | minimal scavenging activity
